Source: ChEMBL document CHEMBL5042526, “Design, Synthesis, and Biological Evaluation of Triazolone Derivatives as Potent PPARα/δ Dual Agonists for the Treatment of Nonalcoholic Steatohepatitis” (J Med Chem, 2022)

How the values were obtained:
[1] = target: T1, Peroxisome proliferator-activated receptor delta (Homo sapiens) (UniProt Q03181); settings: filed as agonist, dose 10.0 nM
T1 sequence (whole entry): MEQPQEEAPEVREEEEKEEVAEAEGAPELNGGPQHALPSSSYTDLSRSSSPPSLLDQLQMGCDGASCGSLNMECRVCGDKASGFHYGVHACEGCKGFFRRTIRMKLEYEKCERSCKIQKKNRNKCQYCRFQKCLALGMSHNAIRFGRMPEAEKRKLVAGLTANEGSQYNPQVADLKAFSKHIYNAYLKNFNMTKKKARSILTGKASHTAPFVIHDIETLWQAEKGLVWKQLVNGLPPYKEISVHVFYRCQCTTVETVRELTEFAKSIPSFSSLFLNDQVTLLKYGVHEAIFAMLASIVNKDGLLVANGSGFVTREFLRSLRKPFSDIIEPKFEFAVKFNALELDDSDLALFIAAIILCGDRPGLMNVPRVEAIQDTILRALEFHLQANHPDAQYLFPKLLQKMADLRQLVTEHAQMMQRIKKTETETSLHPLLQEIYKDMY

[2] = target: T2, Peroxisome proliferator-activated receptor gamma (Homo sapiens) (UniProt P37231); settings: filed as agonist, dose 10.0 nM
T2 sequence (whole entry): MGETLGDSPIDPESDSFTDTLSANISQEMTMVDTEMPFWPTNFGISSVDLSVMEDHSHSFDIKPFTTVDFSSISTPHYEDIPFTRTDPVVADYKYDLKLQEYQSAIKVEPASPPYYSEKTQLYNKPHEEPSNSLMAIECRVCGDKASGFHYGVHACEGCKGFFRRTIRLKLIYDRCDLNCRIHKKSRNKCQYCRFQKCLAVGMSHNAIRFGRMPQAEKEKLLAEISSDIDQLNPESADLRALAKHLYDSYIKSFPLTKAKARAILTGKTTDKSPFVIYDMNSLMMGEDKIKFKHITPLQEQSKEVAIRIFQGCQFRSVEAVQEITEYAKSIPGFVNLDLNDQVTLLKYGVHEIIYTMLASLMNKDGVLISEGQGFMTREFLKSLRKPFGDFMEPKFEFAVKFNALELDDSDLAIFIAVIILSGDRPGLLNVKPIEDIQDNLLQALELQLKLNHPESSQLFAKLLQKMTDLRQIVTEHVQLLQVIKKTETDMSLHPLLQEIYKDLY

[3] = target: T3, Peroxisome proliferator-activated receptor alpha (Homo sapiens) (UniProt Q07869); settings: filed as agonist, dose 10.0 nM
T3 sequence (whole entry): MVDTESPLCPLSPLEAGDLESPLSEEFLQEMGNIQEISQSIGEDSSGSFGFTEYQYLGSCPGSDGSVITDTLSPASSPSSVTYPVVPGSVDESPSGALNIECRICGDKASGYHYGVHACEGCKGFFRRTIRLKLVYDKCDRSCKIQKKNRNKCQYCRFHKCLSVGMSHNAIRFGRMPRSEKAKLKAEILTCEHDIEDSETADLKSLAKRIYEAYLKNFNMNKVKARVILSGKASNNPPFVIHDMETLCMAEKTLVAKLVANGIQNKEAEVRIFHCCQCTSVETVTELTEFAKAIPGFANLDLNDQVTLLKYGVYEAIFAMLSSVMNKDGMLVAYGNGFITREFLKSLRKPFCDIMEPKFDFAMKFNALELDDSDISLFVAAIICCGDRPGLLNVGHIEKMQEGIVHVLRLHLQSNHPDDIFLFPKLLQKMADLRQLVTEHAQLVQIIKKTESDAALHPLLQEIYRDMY
Description: Agonist activity at PPARalpha (unknown origin) assessed as maximal activation at 10 nM relative to GW7647

[4] = target: T4, Peroxisome proliferator-activated receptor gamma (Homo sapiens, UniProt P37231); assay: Agonist activity at PPARgamma (unknown origin)
T4 sequence (P37231 whole entry): T2 sequence (whole entry)

[5] = target: T5, Peroxisome proliferator-activated receptor alpha (Homo sapiens, UniProt Q07869); assay: Agonist activity at PPARalpha (unknown origin)
T5 sequence (Q07869 whole entry): T3 sequence (whole entry)

[6] = target: T2, Peroxisome proliferator-activated receptor gamma (Homo sapiens); assay: Agonist activity at PPARgamma (unknown origin) assessed as maximal activation at 10 nM relative to control; settings: filed as agonist
[7] = target: T1, Peroxisome proliferator-activated receptor delta (Homo sapiens); assay: Agonist activity at PPARdelta (unknown origin) assessed as maximal activation at 10 nM relative to control; settings: filed as agonist
[8] = target: T6, Peroxisome proliferator-activated receptor delta (Homo sapiens, UniProt Q03181); assay: Agonist activity at PPARdelta (unknown origin)
T6 sequence (Q03181 whole entry): T1 sequence (whole entry)

[9] = target: T3, Peroxisome proliferator-activated receptor alpha (Homo sapiens); assay: Agonist activity at PPARalpha (unknown origin) assessed as maximal activation at 10 nM relative to control; settings: filed as agonist
[10] = Microsomal stability in human liver microsomes assessed as terminal elimination half life at 1 uM measured upto 60 mins by LC-MS/MS-11 analysis; type: ADME, Microsome
[11] = Intrinsic clearance in human liver microsomes at 1 uM measured upto 60 mins by LC-MS/MS-11 analysis; type: ADME, Microsome; settings: read-out: CLH

| SMILES | Emax [1] | Emax [2] | Emax [3] | EC50 [4] | EC50 [5] | EC50 [8] | further results |
| --- | --- | --- | --- | --- | --- | --- | --- |
| COc1ccc(-n2cnn(Cc3cc(C)c(OC(C)(C)C(=O)O)c(C)c3)c2=O)cc1 | 107% | 114% | 120% |  |  |  |  |
| CC(C)(Oc1ccc(Cn2ncn(-c3ccc(C(F)(F)F)cc3)c2=O)cc1F)C(=O)O | 118% |  | 136% | > 5000 nM |  |  |  |
| CCc1cc(Cn2ncn(-c3ccc(C(F)(F)F)cc3)c2=O)cc(CC)c1OC(C)(C)C(=O)O |  |  |  |  | 59.1 nM |  |  |
| Cc1cc(Cn2ncn(-c3ccccc3)c2=O)cc(C)c1OC(C)(C)C(=O)O |  |  |  | 865 nM |  |  |  |
| O=C(O)CCCc1cc2cc(Cl)ccc2n1S(=O)(=O)c1ccc2ncsc2c1 [LANIFIBRANOR] |  |  |  | 559 nM | 3060 nM | 2960 nM | Emax [6]: 119%; Emax [7]: 89%; Emax [9]: 65% |
| CC(C)(Oc1ccc(Cn2ncn(-c3ccc(OC(F)(F)F)cc3)c2=O)cc1)C(=O)O | 71% |  | 109% | > 5000 nM |  |  |  |
| Cc1cc(-n2ncn(-c3ccc(C(F)(F)F)cc3)c2=O)cc(C)c1OC(C)(C)C(=O)O |  |  |  | > 5000 nM | > 5000 nM | > 5000 nM |  |
| Cc1cc(Cn2ncn(-c3ccc(Cl)cc3)c2=O)cc(C)c1OC(C)(C)C(=O)O | 114% | 180% | 126% |  |  |  |  |
| CC(C)(Oc1c(Cl)cc(Cn2ncn(-c3ccc(OC(F)(F)F)cc3)c2=O)cc1Cl)C(=O)O | 118% |  | 153% | > 5000 nM | 6.8 nM |  |  |
| Cc1cc(OCn2ncn(-c3ccc(C(F)(F)F)cc3)c2=O)cc(C)c1OC(C)(C)C(=O)O | 72% |  | 69% | > 5000 nM |  |  |  |
| Cc1cc(Cn2ncn(-c3ccc(OC(F)(F)F)cc3)c2=O)cc(Cl)c1OC(C)(C)C(=O)O | 129% |  | 110% | > 5000 nM | 7.6 nM | 28.5 nM |  |
| Cc1cc(Cn2ncn(-c3ccccc3C(F)(F)F)c2=O)cc(C)c1OC(C)(C)C(=O)O |  | 84% |  | 3790 nM | > 5000 nM | > 5000 nM |  |
| Cc1cc(Cn2ncn(-c3ccc(OC(F)(F)F)cc3)c2=O)cc(C(F)(F)F)c1OC(C)(C)C(=O)O |  |  |  |  |  | 5.6 nM | half-life at 1 µM [10]: > 2 h; CLint scaled at 1 µM [11]: 0.09 mL/min/kg |
| Cc1cc(Cn2ncn(-c3ccc(C#N)cc3)c2=O)cc(C)c1OC(C)(C)C(=O)O |  |  |  | > 5000 nM | > 5000 nM | > 5000 nM |  |
| Cc1cc(CCCn2ncn(-c3ccc(C(F)(F)F)cc3)c2=O)cc(C)c1OC(C)(C)C(=O)O | 72% |  | 78% | > 5000 nM |  |  |  |
| Cc1cc(Cn2ncn(-c3ccc(S(C)(=O)=O)cc3)c2=O)cc(C)c1OC(C)(C)C(=O)O |  |  |  | > 5000 nM |  | > 5000 nM |  |
| CC(C)(Oc1ccc(Cn2ncn(-c3ccc(C(F)(F)F)cc3)c2=O)cc1)C(=O)O |  |  |  | > 5000 nM |  |  |  |

| SMILES | Emax [1] | Emax [2] | Emax [3] | EC50 [4] | EC50 [5] | EC50 [8] | further results |
| --- | --- | --- | --- | --- | --- | --- | --- |
| CC(C)(Oc1c(F)cc(Cn2ncn(-c3ccc(C(F)(F)F)cc3)c2=O)cc1F)C(=O)O |  |  |  | > 5000 nM |  |  |  |
| Cc1cc(Cn2ncn(-c3ccc(OC(F)(F)F)cc3)c2=O)ccc1OC(C)(C)C(=O)O | 97% | 110% | 141% |  |  |  |  |
| CC(C)(Oc1ccc(Cn2ncn(-c3ccc(OC(F)(F)F)cc3)c2=O)cc1F)C(=O)O | 105% |  | 102% | > 5000 nM |  |  |  |
| Cc1ccc(-n2cnn(Cc3cc(C)c(OC(C)(C)C(=O)O)c(C)c3)c2=O)cc1 | 87% | 87% | 114% |  |  |  |  |
| Cc1cc(Cn2ncn(-c3ccc(C(F)(F)F)cc3)c2=O)cc(C(F)(F)F)c1OC(C)(C)C(=O)O |  |  |  |  |  | 1.4 nM | half-life at 1 µM [10]: > 2 h; CLint scaled at 1 µM [11]: 2.7 mL/min/kg |
| Cc1cc(Cn2ncn(-c3ccc(C(F)(F)F)cc3)c2=O)cc(Cl)c1OC(C)(C)C(=O)O | 81% | 76% | 162% |  | 8.6 nM | 14.7 nM | half-life at 1 µM [10]: > 2 h; CLint scaled at 1 µM [11]: 3.96 mL/min/kg |
| CC(C)(Oc1c(F)cc(Cn2ncn(-c3ccc(OC(F)(F)F)cc3)c2=O)cc1F)C(=O)O | 113% |  | 99% | > 5000 nM |  |  |  |
| Cc1cc(Cn2ncn(-c3ccc(C(C)C)cc3)c2=O)cc(C)c1OC(C)(C)C(=O)O |  |  |  |  | 7.5 nM |  |  |
| CC(C)(Oc1ccc(Cn2ncn(-c3ccc(C(F)(F)F)cc3)c2=O)cc1Cl)C(=O)O | 97% | 99% | 150% |  |  |  |  |
| CCOc1ccc(-n2cnn(Cc3cc(C)c(OC(C)(C)C(=O)O)c(C)c3)c2=O)cc1 | 81% |  | 79% | > 5000 nM | 32.6 nM |  |  |
| CC(C)(Oc1ccc(Cn2ncn(-c3ccc(OC(F)(F)F)cc3)c2=O)cc1OC(F)(F)F)C(=O)O | 160% | 70% | 130% |  |  |  |  |
| CCc1ccc(-n2cnn(Cc3cc(C)c(OC(C)(C)C(=O)O)c(C)c3)c2=O)cc1 | 99% | 149% | 98% |  | 14.2 nM |  | half-life at 1 µM [10]: > 2 h; CLint scaled at 1 µM [11]: 4.68 mL/min/kg |
| CCc1cc(Cn2ncn(-c3ccc(OC(F)(F)F)cc3)c2=O)cc(CC)c1OC(C)(C)C(=O)O | 74% | 125% | 129% | 3090 nM | 44.4 nM |  |  |
| CC(C)(Oc1ccc(Cn2ncn(-c3ccc(OC(F)(F)F)cc3)c2=O)cc1Cl)C(=O)O | 95% | 67% | 111% |  |  |  |  |
| Cc1cc(Cn2ncn(-c3ccc(Br)cc3)c2=O)cc(C)c1OC(C)(C)C(=O)O |  |  |  |  |  | 21.6 nM | half-life at 1 µM [10]: > 2 h; CLint scaled at 1 µM [11]: 1.45 mL/min/kg |
| Cc1cc(Cn2ncn(-c3ccc(C(F)(F)F)cc3)c2=O)cc(C)c1OC(C)(C)C(=O)O |  |  |  |  |  | 1.7 nM | half-life at 1 µM [10]: > 2 h; CLint scaled at 1 µM [11]: 3.6 mL/min/kg |
| CC(C)(Oc1c(Cl)cc(Cn2ncn(-c3ccc(C(F)(F)F)cc3)c2=O)cc1Cl)C(=O)O |  |  |  |  |  |  | half-life at 1 µM [10]: > 2 h; CLint scaled at 1 µM [11]: 10.3 mL/min/kg |
